Test [1] has as its target T1, P2X7 (Homo sapiens (Human), UniProt Q99572). The test can be described thus: P2X7 antagonism in human peripheral blood mononuclear cells (PBMCs), IL-1β release (LPS + Bz-ATP, ELISA). Format: cell-based. The note with it: P2X7, 10 μM test compound, LPS 30 ng/ml + Bz-ATP 0.5 mM, read-out: PBMC @10 μM (% control). As to the method: (§1) P2X7 Antagonism in Human Peripheral Blood Mononuclear Cells (PBMCs) and Human Whole Blood.
(§2) Human blood was collected using a blood donor program. PBMCs were isolated from blood using a Ficoll density gradient technique. Briefly, blood was laid on Ficoll solution and centrifuged at ROOM TEMPERATURE for 20 minutes at 2000 rpm. The buffy layer (between red blood cells and plasma) was carefully collected by aspiration, washed with PBS and centrifuged again at 1500 rpm for 15 minutes. The resulting cell pellet was washed and plated on 96 well-plates for experiments. For the Human Whole Blood experiments, 150 μl of human blood was plated on 96 well-plates. Lipopolysaccharide (LPS) (30 ng/ml) was added to each well and incubated for 1 hour. Test compounds were then added and incubated for 30 minutes. The P2X7 agonist, 2′(3′)-O-(4-benzoylbenzoyl) adenosine 5′-triphosphate (Bz-ATP) was then added at a final concentration of 0.5 mM (PBMC) or 1 mM (blood). Cells were incubated for an additional 1.5 hours. At that point, supernatant was collected and stored for IL-1β assay using manufacturer's protocol for enzyme-linked immunosorbant assay (ELISA). Data was expressed as percent control, where control is defined as the difference in IL-1β release in LPS+Bz-ATP samples and LPS only samples. Data was plotted as response (% control) versus concentration to generate IC50 values. […] Data are analyzed and graphed on Graphpad Prism 5. For analysis, each concentration point is averaged from triplicate values and the averaged values are plotted on Graphpad Prism. The IC50 for each compound is then uploaded into 3DX.
(In general: In an ELISA, binding on a coated surface is turned into a signal by an enzyme label.)

Test [2] addresses T1, P2X7. The test can be described thus: P2X7 antagonism in human whole blood, IL-1β release (LPS + Bz-ATP, ELISA). Particulars: LPS 30 ng/ml + Bz-ATP 1 mM. Format: cell-based. As to the method: as §1, §2
The next test addresses rat P2X7 (Rattus norvegicus (Rat), UniProt Q64663). The test can be described thus: P2X7 antagonism in recombinant rat P2X7 cells (column headed P2X7 Rat IC50). Format: binding. As to the method: The in vitro affinity of the compounds of the invention for the rat and human P2X7 receptor was determined using a human peripheral blood mononuclear cells (PBMCs), a human whole blood assay, a Ca^2+ flux and radioligand binding assay in recombinant human P2X7 cells and recombinant rat P2X7 cells. […] The data represented in Tables 2 may represent a value from a single determination or when the experiment was run more than once, the data represents the average from between 2-12 runs.
P2X7 Antagonism in Recombinant Human P2X7 Cells or Recombinant Rat P2X7 Cells: […]

Setting [3] is: read-out: Human Whole Blood IC50.

The structures appear in SMILES notation. “And” between values parts separate entries of the source, which are not always exact repeats. Identical values can stand only once. Like-named read-outs stand apart in the source and are kept apart here. Where only a bound is given, the exact number is not on record here.

Chain of rat P2X7 (Q64663 whole entry): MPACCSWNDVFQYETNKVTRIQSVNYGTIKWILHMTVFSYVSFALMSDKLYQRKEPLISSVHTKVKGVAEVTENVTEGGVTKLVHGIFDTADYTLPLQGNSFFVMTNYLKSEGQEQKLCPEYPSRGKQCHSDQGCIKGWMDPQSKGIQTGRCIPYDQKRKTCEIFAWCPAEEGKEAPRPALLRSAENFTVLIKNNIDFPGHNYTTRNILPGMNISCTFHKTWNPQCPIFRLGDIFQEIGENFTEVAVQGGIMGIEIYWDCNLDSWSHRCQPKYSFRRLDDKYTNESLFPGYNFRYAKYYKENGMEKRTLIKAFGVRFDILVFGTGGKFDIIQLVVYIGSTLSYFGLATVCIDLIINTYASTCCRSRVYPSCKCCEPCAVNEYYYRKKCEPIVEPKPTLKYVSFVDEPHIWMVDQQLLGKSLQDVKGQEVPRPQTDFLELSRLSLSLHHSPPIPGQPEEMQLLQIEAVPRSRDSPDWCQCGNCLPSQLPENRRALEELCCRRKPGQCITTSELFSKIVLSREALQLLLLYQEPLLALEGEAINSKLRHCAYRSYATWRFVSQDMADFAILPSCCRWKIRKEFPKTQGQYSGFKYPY
T1 sequence (Q99572 whole entry): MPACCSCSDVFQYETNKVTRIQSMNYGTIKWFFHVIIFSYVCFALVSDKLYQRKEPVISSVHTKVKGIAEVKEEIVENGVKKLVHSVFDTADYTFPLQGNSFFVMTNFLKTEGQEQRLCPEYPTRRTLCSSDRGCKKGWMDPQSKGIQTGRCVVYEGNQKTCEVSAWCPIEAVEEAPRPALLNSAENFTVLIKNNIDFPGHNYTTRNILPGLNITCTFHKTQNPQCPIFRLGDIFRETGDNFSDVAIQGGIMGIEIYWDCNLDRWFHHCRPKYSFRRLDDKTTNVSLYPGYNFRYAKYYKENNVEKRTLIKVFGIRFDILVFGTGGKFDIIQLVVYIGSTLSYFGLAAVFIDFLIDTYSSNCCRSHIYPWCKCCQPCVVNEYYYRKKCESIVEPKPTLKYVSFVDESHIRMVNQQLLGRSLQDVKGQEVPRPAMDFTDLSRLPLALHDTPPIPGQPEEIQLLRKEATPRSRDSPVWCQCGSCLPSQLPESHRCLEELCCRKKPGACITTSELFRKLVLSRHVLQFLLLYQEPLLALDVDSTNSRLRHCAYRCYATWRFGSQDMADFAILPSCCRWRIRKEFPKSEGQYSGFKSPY

On to `Cc1nc(-c2ccn[nH]2)c2c(n1)[C@@H]1CCC[C@H](C2)N1C(=O)c1ccc(Cl)cc1Cl` [Example 5, (2,4-dichlorophenyl)((6R,10S)-2-methyl-4-(1H-pyrazol-5-yl)-5,6,7,8,9,10-hexahydro-6,10-epiminocycloocta[d]pyrimidin-11-yl)methanone], for which the remaining activity at 10 µM on P2X7 [1] was found to be 76.5%. Besides, the IC50 (in general, the concentration that inhibits the measured activity by half) at P2X7 [2] (Human Whole Blood IC50 (μM)) came to 2 µM.
As for `Cc1nc(-c2ccn[nH]2)c2c(n1)[C@@H]1CCC[C@H](C2)N1C(=O)c1cccc(C(F)(F)F)c1F` [Example 8, (2-fluoro-3-(trifluoromethyl)phenyl)((6R,10S)-2-methyl-4-(1H-pyrazol-5-yl)-5,6,7,8,9,10-hexahydro-6,10-epiminocycloocta[d]pyrimidin-11-yl)methanone], at P2X7 [1], the remaining activity at 10 µM was 31.9%. Besides, on rat P2X7, the IC50 was 601 nM.
As to `Cc1nc(-c2cnn(C)c2)c2c(n1)[C@H]1CCC[C@@H](C2)N1C(=O)c1ccc(Cl)cc1Cl` [Example 40, (2,4-dichlorophenyl)((6S,10R)-2-methyl-4-(1-methyl-1H-pyrazol-4-yl)-5,6,7,8,9,10-hexahydro-6,10-epiminocycloocta[d]pyrimidin-11-yl)methanone], the remaining activity at 10 µM on P2X7 [1] was 76.2%.
For the molecule `Cc1nc(-c2cnn(C)c2)c2c(n1)[C@H]1CCC[C@@H](C2)N1C(=O)c1ccc(Cl)c(F)c1Cl` [Example 35, (2,4-dichloro-3-fluorophenyl)((6S,10R)-2-methyl-4-(1-methyl-1H-pyrazol-4-yl)-5,6,7,8,9,10-hexahydro-6,10-epiminocycloocta[d]pyrimidin-11-yl)methanone], the remaining activity at 10 µM at P2X7 [1] is 9.1%. Also, the half-maximal inhibitory concentration (IC50) at rat P2X7 is greater than 10000 nM; on P2X7 [2] (setting [3]) it was 2.3 µM.
For `Cc1nc(-c2cnn(C)c2)c2c(n1)[C@H]1CCC[C@@H](C2)N1C(=O)c1ccc(Cl)cc1F` [Example 38, (4-chloro-2-fluorophenyl)((6S,10R)-2-methyl-4-(1-methyl-1H-pyrazol-4-yl)-5,6,7,8,9,10-hexahydro-6,10-epiminocycloocta[d]pyrimidin-11-yl)methanone], on P2X7 [1], the remaining activity at 10 µM was 46.8%. Besides, the IC50 at rat P2X7 was greater than 10000 nM; on P2X7 [2] (setting [3]), greater than 10 µM.
For `Cc1nc(-c2ccc(F)cc2)c2c(n1)[C@H]1CCC[C@@H](C2)N1C(=O)c1ccc(Cl)c(F)c1Cl` [Example 54, (2,4-dichloro-3-fluorophenyl)((6S,10R)-4-(4-fluorophenyl)-2-methyl-5,6,7,8,9,10-hexahydro-6,10-epiminocycloocta[d]pyrimidin-11-yl)methanone], the remaining activity at 10 µM on P2X7 [1] is 9.3%. The IC50 at rat P2X7 came to 372 nM.
Consider `Cc1nc(-c2cnccn2)c2c(n1)[C@H]1CCC[C@@H](C2)N1C(=O)c1cccc(Cl)c1Cl` [Example 48, (2,3-dichlorophenyl)((6S,10R)-2-methyl-4-(pyrazin-2-yl)-5,6,7,8,9,10-hexahydro-6,10-epiminocycloocta[d]pyrimidin-11-yl)methanone], for which the remaining activity at 10 µM at P2X7 [1] is -4.3%. At rat P2X7, the IC50 was 54.3 nM.
Taken in the same sequence, the figures for `Cc1nc(-c2ccn[nH]2)c2c(n1)[C@H]1CCC[C@@H](C2)N1C(=O)c1cccc(C(F)(F)F)c1F` [Example 26, (2-fluoro-3-(trifluoromethyl)phenyl)((6S,10R)-2-methyl-4-(1H-pyrazol-5-yl)-5,6,7,8,9,10-hexahydro-6,10-epiminocycloocta[d]pyrimidin-11-yl)methanone] were -3.8% and 41.4 nM.
With `Cc1nc(-c2ccccn2)c2c(n1)[C@H]1CCC[C@@H](C2)N1C(=O)c1ccnc(C(F)(F)F)c1Cl` [Example 61, (3-chloro-2-(trifluoromethyl)pyridin-4-yl)((6S,10R)-2-methyl-4-(pyridin-2-yl)-5,6,7,8,9,10-hexahydro-6,10-epiminocycloocta[d]pyrimidin-11-yl)methanone], the remaining activity at 10 µM on P2X7 [1] was 0.4%. For the same molecule, the IC50 on rat P2X7 was 46 nM.
As to `Cc1nc(-c2ccc(F)cc2)c2c(n1)[C@@H]1CCC[C@H](C2)N1C(=O)c1ccc(Cl)cc1Cl` [Example 15, (2,4-dichlorophenyl)((6R,10S)-4-(4-fluorophenyl)-2-methyl-5,6,7,8,9,10-hexahydro-6,10-epiminocycloocta[d]pyrimidin-11-yl)methanone], the 50% inhibitory concentration (IC50) on P2X7 [2] (Human Whole Blood IC50 (μM)) was 5.05 µM and 13.3 µM.
Turning to `Cc1nc(-c2cnn(C)c2)c2c(n1)[C@H]1CCC[C@@H](C2)N1C(=O)c1cccc(C(F)(F)F)c1Cl` [Example 30, (2-chloro-3-(trifluoromethyl)phenyl)((6S,10R)-2-methyl-4-(1-methyl-1H-pyrazol-4-yl)-5,6,7,8,9,10-hexahydro-6,10-epiminocycloocta[d]pyrimidin-11-yl)methanone], the remaining activity at 10 µM at P2X7 [1] was -3.7%. In addition, the IC50 at rat P2X7 was greater than 10000 nM.
Turning to `Cc1nc(-c2ccc(F)cc2)c2c(n1)[C@@H]1CCC[C@H](C2)N1C(=O)c1ccc(F)c(Cl)c1Cl` [Example 17, (2,3-dichloro-4-fluorophenyl)((6R,10S)-4-(4-fluorophenyl)-2-methyl-5,6,7,8,9,10-hexahydro-6,10-epiminocycloocta[d]pyrimidin-11-yl)methanone], on P2X7 [1], the remaining activity at 10 µM worked out at 13.3%. Also, at P2X7 [2] (Human Whole Blood IC50 (μM)), the IC50 is 2.02 µM.
Turning to `Cc1nc(-c2ccn[nH]2)c2c(n1)[C@@H]1CCC[C@H](C2)N1C(=O)c1cccc(C(F)(F)F)c1Cl` [Example 3, (2-chloro-3-(trifluoromethyl)phenyl)((6R,10S)-2-methyl-4-(1H-pyrazol-5-yl)-5,6,7,8,9,10-hexahydro-6,10-epiminocycloocta[d]pyrimidin-11-yl)methanone], at P2X7 [1], the remaining activity at 10 µM was 22%. Besides, the 50% inhibitory concentration (IC50) at rat P2X7 is 811 nM.
For `Cc1nc(-c2cnccn2)c2c(n1)[C@H]1CCC[C@@H](C2)N1C(=O)c1ccnc(C(F)(F)F)c1Cl` [Example 49, (3-chloro-2-(trifluoromethyl)pyridin-4-yl)((6S,10R)-2-methyl-4-(pyrazin-2-yl)-5,6,7,8,9,10-hexahydro-6,10-epiminocycloocta[d]pyrimidin-11-yl)methanone], in that order: -1.9% and 139 nM.
Taken in the same sequence, the figures for `Cc1nc(-c2ncccn2)c2c(n1)[C@H]1CCC[C@@H](C2)N1C(=O)c1cccc(C(F)(F)F)c1C` [Example 43, (2-methyl-3-(trifluoromethyl)phenyl)((6S,10R)-2-methyl-4-(pyrimidin-2-yl)-5,6,7,8,9,10-hexahydro-6,10-epiminocycloocta[d]pyrimidin-11-yl)methanone] were 15% and 41.7 nM.
As to `Cc1nc(-c2ccc(F)cc2)c2c(n1)[C@H]1CCC[C@@H](C2)N1C(=O)c1ccnc(C(F)(F)F)c1Cl` [Example 52, (3-chloro-2-(trifluoromethyl)pyridin-4-yl)((6S,10R)-4-(4-fluorophenyl)-2-methyl-5,6,7,8,9,10-hexahydro-6,10-epiminocycloocta[d]pyrimidin-11-yl)methanone], at P2X7 [1], the remaining activity at 10 µM was -1.2%. The half-inhibitory concentration (IC50) at rat P2X7 was determined as 81.8 nM.
As for `Cc1nc(-c2cnn(C)c2)c2c(n1)[C@H]1CCC[C@@H](C2)N1C(=O)c1ccc(F)cc1Cl` [Example 36, (2-chloro-4-fluorophenyl)((6S,10R)-2-methyl-4-(1-methyl-1H-pyrazol-4-yl)-5,6,7,8,9,10-hexahydro-6,10-epiminocycloocta[d]pyrimidin-11-yl)methanone], on P2X7 [1], the remaining activity at 10 µM came out at 73.8%.
Regarding `Cc1nc(-c2ccn[nH]2)c2c(n1)[C@H]1CCC[C@@H](C2)N1C(=O)c1cccc(C(F)(F)F)c1Cl` [Example 19, (2-chloro-3-(trifluoromethyl)phenyl)((6S,10R)-2-methyl-4-(1H-pyrazol-5-yl)-5,6,7,8,9,10-hexahydro-6,10-epiminocycloocta[d]pyrimidin-11-yl)methanone], the remaining activity at 10 µM at P2X7 [1] was -3%. Further, the half-maximal inhibitory concentration (IC50) at rat P2X7 was 12.2 nM.
In the case of `Cc1nc(-c2ccn[nH]2)c2c(n1)C1CCCC(C2)N1C(=O)c1cccc(C(F)(F)F)c1Cl` (centres unmarked) [Example 2, (2-chloro-3-(trifluoromethyl)phenyl)(2-methyl-4-(1H-pyrazol-5-yl)-5,6,7,8,9,10-hexahydro-6,10-epiminocycloocta[d]pyrimidin-11-yl)methanone], the remaining activity at 10 µM at P2X7 [1] was determined as 1.1%.
Consider `Cc1nc(-c2ccc(F)cc2)c2c(n1)[C@@H]1CCC[C@H](C2)N1C(=O)c1ccnc(C(F)(F)F)c1Cl` [Example 18, (3-chloro-2-(trifluoromethyl)pyridin-4-yl)((6R,10S)-4-(4-fluorophenyl)-2-methyl-5,6,7,8,9,10-hexahydro-6,10-epiminocycloocta[d]pyrimidin-11-yl)methanone], for which, on P2X7 [1], the remaining activity at 10 µM stood at 28.9%. Besides, the IC50 at rat P2X7 was greater than 10000 nM.
